According to paper PMC9919490, “Synthesis and Biological Evaluation of Novel Dispiro-Indolinones with Anticancer Activity” (Molecules, 2023):

What was measured:
[1] = test system: HCT^−/− cells; experiment: MTT cytotoxicity assay, HCT^−/− (p53 neg); format: cell-based; settings: 48 h
[2] = test system: HCT116 tumor xenografts; experiment: HCT116 xenograft model
Method: Twenty-three conventional, immunodeficient female mice (BALB/c nude, 20–23 g) were housed in RAMS and used as donors and recipients for HCT116 cells.
The first implantation of HCT116 tumor cells (1 × 10^6 in a volume of 0.5 mL) was performed subcutaneously into two BALB/c nude mice. The first transplantation of the xenograft (50 mg) was performed after 30 days into 2 mice (the 3rd passage was used in vivo). […] Then, in a laminar flow hood, the tumor suspension (0.5 mL, the first passage) was implanted subcutaneously into the flank area of two BALB/c nude mice (males). After a volume of 0.8–1.0 cm^3 was achieved, the nudes were passaged using 4 donor mice to obtain the desired grade and mass of the transplants. […] The tumor nests were mechanistically disintegrated to obtain 10% of the tumor samples, and then the nutrient medium was added. The inoculation was performed using individual sterile plastic syringes (1 mL) equipped with 18G suture needles. The transplantation was carried out bilaterally in the flank areas. Each mouse was inoculated with 0.5 mL (10%) of the tumor suspension (40 mg of the tumor mass for each animal). Prior to inoculation, the animals’ skin was treated with 70% alcohol. Between injections, the Petri dish containing the tumor suspension was tightly covered to avoid any contamination. Before injection, the suspension was vigorously stirred in a syringe. […]

CCOc1ccc(N2C(=O)C3(NC2=S)C(c2ccc(Cl)cc2)CN(C)C32C(=O)Nc3ccc(Br)cc32)cc1 (stereo not drawn) [Compound 29]
IC50 [1]: 70.5 ± 15.2 µM
T/C ([2]; 1000 mg/kg i.p. o.d. 10 days, after 4 days, p = 0.0007): 44%
T/C (treatment/control) ([2]; sample 1000 mg/kg i.p. o.d. 10 days, after 24 h, p = 0.00005): 25%
